These antisense oligonucleotides have a phosphorothioate backbone; sugars and methylation of C are not fully specified.

Targets include GNAI2; ITGB3; PYGL; SMAD2.
Holding throughout (conditions): ASO
Also: test concentration or dose not given here.

Consider AAAGAGAGGAAAGAGGAG, for which, in the series with GNAI2, the remaining target (mRNA or protein) (fraction of control) is 0.99. Turning to AAAGGCACAGGCAGCTCT, the remaining target (mRNA or protein) (fraction of control) in the series with ITGB3 was at least 1.

Sequence AACATTTGGACTTGGCTG gave a remaining target (mRNA or protein) (fraction of control) with GNAI2 of 0.76. In the series with ITGB3, AAGCGGGTCACCTGGTCA registered a remaining target (mRNA or protein) (fraction of control) of at least 1. On the same count and under the same terms, for AAGGTAGACGTGGCCTCT the value was 0.71. Still for that read-out and setting: for ACACACACATAAACACAC the value was at least 1. On to ACACAGACAAGACAATGT, for which, in the series with GNAI2, the remaining target (mRNA or protein) (fraction of control) is at least 1. The sequence ACAGTTCAAGAGCTGTCGCT showed a remaining target (mRNA or protein) (fraction of control) with PYGL of 0.39.

On to ACATACTGACATTCTCCC, for which the remaining target (mRNA or protein) (fraction of control) in the series with ITGB3 is at least 1. ACATCTTGAAGTGTAGGT registered a remaining target (mRNA or protein) (fraction of control) with GNAI2 of 0.78. Take ACCACATACAGGATGGAC: the remaining target (mRNA or protein) (fraction of control) with ITGB3 is at least 1. Sequence ACCAGCATCTCAGACAAG returned a remaining target (mRNA or protein) (fraction of control) with GNAI2 of at least 1. In the case of ACGACACAGTCATCCTCA, the remaining target (mRNA or protein) (fraction of control) with ITGB3 is at least 1.

Sequence ACGGGCCAGCGCTCCAGGGC returned a remaining target (mRNA or protein) (fraction of control) in the series with PYGL of 0.47. With ACTCACTGGGAACTCGAT, the remaining target (mRNA or protein) (fraction of control) in the series with ITGB3 worked out at 0.66. In the series with ITGB3, AGAAGTCGTCACACTCGC returned a remaining target (mRNA or protein) (fraction of control) of 0.72. The same measure, in the same setting: next, AGACAACTCTTCAGGGAG: 0.62. AGACAAGGGCAGGCTTCA returned a remaining target (mRNA or protein) (fraction of control) with GNAI2 of 0.37. Sequence AGAGATTGACTACATTTT showed a remaining target (mRNA or protein) (fraction of control) with ITGB3 of 0.93. Same read-out and setting: for AGATGCTGGTACATCCCC the value was 0.4. As to AGCCCATCCCGCCGTCCG, in the series with GNAI2, the remaining target (mRNA or protein) (fraction of control) was 0.91.

AGCTGCCTGGCGTCGTCC returned a remaining target (mRNA or protein) (fraction of control) with GNAI2 of 0.34. For the sequence AGCTGCTGAGAGTCAGGC, in the series with ITGB3, the remaining target (mRNA or protein) (fraction of control) amounted to 0.22.

AGCTGGTATTCCCTTGAG: the remaining target (mRNA or protein) (fraction of control) in the series with GNAI2 was determined as 0.55.

Turning to AGCTTCTCAGTCATCAGC, in the series with ITGB3, the remaining target (mRNA or protein) (fraction of control) amounted to 0.28. AGGAAGAGGATGATGGAC: the remaining target (mRNA or protein) (fraction of control) in the series with GNAI2 is at least 1. Turning to AGGATGGGTTGATCTTCACT, the remaining target (mRNA or protein) (fraction of control) with PYGL stood at 0.39. In the series with ITGB3, AGGCATCTGGGCAGGTGG gave a remaining target (mRNA or protein) (fraction of control) of 0.9. Take AGGCTCCCTGTAAACATT: the remaining target (mRNA or protein) (fraction of control) with GNAI2 was found to be 0.77. Same read-out and setting: for AGGTCGTTCAGGTAGTAG the value was 0.64. The sequence AGTATTCTTTTGCCTCGTAC yielded a remaining target (mRNA or protein) (fraction of control) in the series with PYGL of 0.21. Regarding AGTCCTCCTCTGAGCACT, the remaining target (mRNA or protein) (fraction of control) with ITGB3 came to 0.55. In the case of AGTCCTTCAGGTTGTTCT, the remaining target (mRNA or protein) (fraction of control) in the series with GNAI2 was found to be 0.54. As to ATCACCCAGGAAGCTGTGGA, the remaining target (mRNA or protein) (fraction of control) in the series with PYGL worked out at 0.31. Same read-out and setting: for ATCAGAGACATCCTTCTCAG the value was 0.33; for ATCTGTGGCTGGAATGACTT, 0.79. Consider ATGACTGCTTATCATTAA, for which, in the series with ITGB3, the remaining target (mRNA or protein) (fraction of control) is at least 1. ATGCTCATGCCAAAGATGAA had a remaining target (mRNA or protein) (fraction of control) in the series with PYGL of 0.98. The same measure, in the same setting: next, ATGCTTCTGATTTATCTCAT: 0.49.

ATGGTGCTCTTCCCTGAC displayed a remaining target (mRNA or protein) (fraction of control) in the series with GNAI2 of 0.52. As for ATTGTCATTGGGATAGAGGA, in the series with PYGL, the remaining target (mRNA or protein) (fraction of control) was determined as 0.49. Still for that read-out and setting: next, ATTTTGCAGACCGAGGTTGA: 0.31.

In the series with GNAI2, CAACAGCAGCAACTTCAC registered a remaining target (mRNA or protein) (fraction of control) of 0.89.

Take CAATAAGGCAAATCTGAA: the remaining target (mRNA or protein) (fraction of control) with ITGB3 came out at 0.77.

CACAGCATGGGAACCGACAA returned a remaining target (mRNA or protein) (fraction of control) with PYGL of 0.15.

Turning to CACATTGACCACAGAGGC, the remaining target (mRNA or protein) (fraction of control) with ITGB3 was 0.74. In turn, CATTCCTCCAGCCAATCT came in with a remaining target (mRNA or protein) (fraction of control) with ITGB3 of 0.6. For the sequence CCACGGGCTTTATGGTAA, in the series with ITGB3, the remaining target (mRNA or protein) (fraction of control) was 0.63.

CCCCTCCCTCATACACAG came in with a remaining target (mRNA or protein) (fraction of control) with GNAI2 of 0.62. The same measure, in the same setting: for CCCGCCCGACCCACCCGA the value was 0.62.

The sequence CCCTCCAGACGCAGCCTT showed a remaining target (mRNA or protein) (fraction of control) with GNAI2 of 0.47. On the same count and under the same terms, for CCTCAAACTTACTCTGGA the value was 0.85; for CGCAGAAGATGATGGCTG, 0.67; for CGCCCTCAAAGCAGTGGA, 0.61. On the same count and under the same terms, for CGGACAGGTCATCAGGGA the value was 0.59; for CGTTCTTGGTGTCGGTGG, 0.39. In turn, CTAATCGTCCTGTTTTCT gave a remaining target (mRNA or protein) (fraction of control) with SMAD2 of 0.33. On the same count and under the same terms, next, CTCACACCACTTTTCTTC: 0.1. Still for that read-out and setting: next, CTCTCCTCCGCCTGCTCC: 0.01.

For the origin of these results see the OligoGym collection.
